From patent publication US4117003A, “Substituted aromatic naphthalene sulfonamides” (American Cyanamid Company, priority 1977, dated 1978) come the findings set out here.

In one experiment the target is T1, activated human C1 (Homo sapiens, UniProt P09871).
T1 sequence (P09871 438-688 limits assumed): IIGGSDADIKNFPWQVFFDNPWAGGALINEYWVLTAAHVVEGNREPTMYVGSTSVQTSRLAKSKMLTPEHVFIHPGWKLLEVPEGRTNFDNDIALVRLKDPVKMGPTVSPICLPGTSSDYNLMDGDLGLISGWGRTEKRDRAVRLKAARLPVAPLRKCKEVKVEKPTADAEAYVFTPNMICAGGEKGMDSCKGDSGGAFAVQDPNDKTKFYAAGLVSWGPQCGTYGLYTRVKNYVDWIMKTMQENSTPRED
T1 sequence (P09871 16-437 limits assumed): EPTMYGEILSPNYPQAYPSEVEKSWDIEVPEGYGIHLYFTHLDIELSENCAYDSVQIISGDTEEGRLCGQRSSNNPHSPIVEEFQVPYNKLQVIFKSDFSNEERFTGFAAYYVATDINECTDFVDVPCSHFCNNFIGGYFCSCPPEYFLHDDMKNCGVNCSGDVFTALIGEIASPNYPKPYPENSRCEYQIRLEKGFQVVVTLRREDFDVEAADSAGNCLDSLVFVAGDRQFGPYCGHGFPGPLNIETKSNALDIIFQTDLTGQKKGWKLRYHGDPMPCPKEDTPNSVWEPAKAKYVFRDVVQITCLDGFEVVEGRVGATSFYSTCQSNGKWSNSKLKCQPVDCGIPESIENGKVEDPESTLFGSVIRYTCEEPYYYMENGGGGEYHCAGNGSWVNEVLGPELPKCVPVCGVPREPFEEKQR
The experiment is described as follows: Test, Code 026 (C1 inhibitor). It counts as biochemical. The following applies: activity in wells of a serial two-fold dilution assay; higher well number indicates higher activity. The source says:
(§1) This test measures the ability of activated human C1 to destroy fluid phase human C2 in the presence of C4 and appropriate dilutions of the test compound. An active inhibitor protects C2 from C1 and C4; (ii) Test, Code 035 (C3-C9 inhibitor). This test determines the ability of the late components of human complement (C3-C9) to lyse EAC 142 in the presence of appropriate dilutions of the test compound. An active inhibitor protects EAC 142 from lysis by human C3-C9; (iii) Test, Code 036 (C-Shunt inhibitor). In this test human erythrocytes rendered fragile are lysed in autologous serum via the shunt pathway activated by cobra venom factor in the presence of appropriate dilutions of the test compound. Inhibition of the shunt pathway results in failure of lysis; (iv) Forssman Vasculitis Test - Here, the well known complement dependent lesion, Forssman vasculitis, is produced in guinea pigs by intradermal injection of rabbit anti-Forssman antiserum. […]

In experiment [1] the test system is late components of human complement (C3-C9). The experiment is described as follows: Test, Code 035 (C3-C9 inhibitor). It counts as biochemical. The settings on record: activity in wells of a serial two-fold dilution assay; higher well number indicates higher activity.
Text: as §1

Experiment [2] concerns shunt pathway activated by cobra venom factor. The experiment is described as follows: Test, Code 036 (C-Shunt inhibitor). The following applies: activity in wells of a serial two-fold dilution assay; higher well number indicates higher activity. It counts as cell-based, human.
Text: as §1

Experiment [3] concerns whole complement in serum. The experiment is described as follows: Complement Level Reduction Test (in vivo, capillary tube assay of serum). The settings on record: Cavia porcellus, ip, guinea pig, 200 mg/kg i.p., read-out: In Vivo Activity (Guinea Pig) % Inhibition Intraperitoneal.

Structures can show the parent of a compound that is named as a salt. Where two headings read alike, the source gives them in different places.

The inhibition is the change of the read-out against control, counted positive when it falls.

Turning to `O=S(=O)(O)c1ccc(NS(=O)(=O)c2ccc3c(S(=O)(=O)Nc4ccc(S(=O)(=O)O)cc4)cc(S(=O)(=O)Nc4ccc(S(=O)(=O)O)cc4)cc3c2)cc1` [4,4',4"-[1,3,6-Naphthalenetris(sulfonylimino)]trisbenzenesulfonic acid trisodium salt], at activated human C1, the “Cl 0.26* Wells” value is reported as “+4 Wells”. Besides, in experiment [1], the “C-Late 0.35* Wells” value was “N”. In addition, the “Shunt Inhibition 0.36* Wells” value in experiment [2] is on record as “N”.

In the case of `O=S(=O)(O)c1cc(NS(=O)(=O)c2ccc3c(S(=O)(=O)Nc4cc(S(=O)(=O)O)cc(S(=O)(=O)O)c4)cc(S(=O)(=O)Nc4cc(S(=O)(=O)O)cc(S(=O)(=O)O)c4)cc3c2)cc(S(=O)(=O)O)c1` [5,5',5"-[1,3,6-Naphthalenetris(sulfonylimino)]tris-1,3-benzenedisulfonic acid hexasodium salt], in experiment [1], the “C-Late 0.35* Wells” value is “N”. For the same molecule, the inhibition at 200 mg/kg is -85% in experiment [3] (0.5 h, 30 minutes); -86% in experiment [3] (1 h, 60 minutes); -86% in experiment [3] (2 h, 120 minutes).
